This note sets out measurements from US20240358777A1, “COMPOSITIONS COMPRISING BACILLUS AMYLOLIQUEFACIENS FOR PREVENTING AND TREATING ULCERATIVE COLITIS” (Artugen Therapeutics Ltd., priority 2021, published 2024).

As a reminder, the MIC is the smallest concentration in the dilution series that meets the test's criterion for growth inhibition.

Experiment [1] concerns ART24. The experiment is described as follows: Additional EFSA-recommended MIC studies on ART24 lots and cell banks (Table 7). In kind it is cell-based, Bacillus amyloliquefaciens. On the procedure: The minimum inhibitory concentration (MIC) of the listed antimicrobials is expressed as μg/mL. Additional studies following EFSA testing recommendations were performed on lyophilized ART24 lots CO-33-10A2 and CO-33-12A2 and Research and Master Cell Banks CO-33-ART24 BHI and CO-33-ART24 SYD, and those results are shown in Table 7.

The test system of experiment [2] is ART24. The experiment can be described thus: Antibiotic susceptibility of ART24, MIC, VetMIC Lact-1 & Lact-2 panels (Table 6). As to conditions: 24 hr at 37° C.; average results from N = 6. The class given is cell-based, Bacillus amyloliquefaciens. On the procedure:
The minimum inhibitory concentration (MIC) of the listed antimicrobials is expressed as μg/mL. […] From this suspension 46 μL was transferred in to 23 mL of 90% Iso-Sensitest Broth (CM0473, Oxoid) containing 10% BHI broth to end with a final inoculum concentration of 5×10^5 CFU/mL. The wells of the prefabricated 96-well plates were filled with 100 μL of the final suspension. The plates were sealed with an […], Sigma Aldrich) sealing film (to facilitate growth of the […] strains. The plates were then incubated for 24 hr at 37° C. The results are recorded after 24 hours as the lowest concentration of the antibiotic to inhibit visible growth. The prefabricated panels […], Uppsala, Sweden) comprising the antibiotics ampicillin, vancomycin, gentamicin, kanamycin, streptomycin, erythromycin, clindamycin, tetracycline, chloramphenicol, neomycin, penicillin, quinupristin-dalfopristin, linezolid, trimethoprim, ciprofloxacin and rifampicin were used.

As to Quinupristin-dalfopristin, the MIC came out at 1 µg/mL in the experiment with ART24 [1] (source CO-33-10A2 (lyophilized lot)), 2 µg/mL in the experiment with ART24 [1] (source CO-33-12A2 (lyophilized lot)), 2 µg/mL with ART24 [1] (source CO-33 ART 24 BHI) and 2 µg/mL with ART24 [1] (source CO-33 ART 024 SYD). Moreover, the “ART24 MIC” value in the experiment on ART24 [2] turned out to be 4 µg/mL.
